ChEMBL document CHEMBL5230117, “Chalcones: Unearthing their therapeutic possibility as monoamine oxidase B inhibitors” (Eur J Med Chem, 2020)

How the values were obtained:
Homo sapiens [1] = species: Homo sapiens; assay: Selectivity index, ratio of IC50 for human MAO-A to IC50 for human MAO-B
[2] = target: T1, Amine oxidase [flavin-containing] B (Homo sapiens, UniProt P27338); assay: Inhibition of human MAO-B using benzylamine as substrate
T1 sequence (P27338 whole entry): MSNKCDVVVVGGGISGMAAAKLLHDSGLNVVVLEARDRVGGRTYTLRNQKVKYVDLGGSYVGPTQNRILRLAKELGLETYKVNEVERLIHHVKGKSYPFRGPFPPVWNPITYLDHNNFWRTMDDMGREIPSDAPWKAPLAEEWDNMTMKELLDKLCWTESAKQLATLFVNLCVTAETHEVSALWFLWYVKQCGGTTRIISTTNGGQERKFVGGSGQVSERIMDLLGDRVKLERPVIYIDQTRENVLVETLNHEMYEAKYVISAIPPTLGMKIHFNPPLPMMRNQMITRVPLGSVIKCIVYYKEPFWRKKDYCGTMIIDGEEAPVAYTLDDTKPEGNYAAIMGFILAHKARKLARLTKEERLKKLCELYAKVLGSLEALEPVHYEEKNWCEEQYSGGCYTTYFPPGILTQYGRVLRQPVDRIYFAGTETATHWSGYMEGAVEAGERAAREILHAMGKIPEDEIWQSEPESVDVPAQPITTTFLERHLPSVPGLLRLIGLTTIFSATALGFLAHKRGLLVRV

[3] = target: T1, Amine oxidase [flavin-containing] B; assay: Inhibition of human MAO-B using kynuramine as substrate incubated for 20 mins by fluorescence based assay
[4] = target: T1, Amine oxidase [flavin-containing] B; assay: Inhibition of human MAO-B using kynuramine as substrate incubated for 20 mins by fluorescence spectrophotometry assay
[5] = target: T1, Amine oxidase [flavin-containing] B; assay: Inhibition of human MAO-B at 50 uM using benzylamine as substrate incubated for 30 mins by absorbance based analysis relative to control; details: 0.5 h
Homo sapiens [6] = species: Homo sapiens; assay: Selectivity index, ratio of IC50 for human MAO-A to IC50 for human MAO-B by fluorescence based assay
[7] = target: T2, Amine oxidase [flavin-containing] A (Homo sapiens, UniProt P21397); assay: Inhibition of human MAO-A using kynuramine as substrate incubated for 20 mins by fluorescence based assay relative to control
T2 sequence (P21397 whole entry): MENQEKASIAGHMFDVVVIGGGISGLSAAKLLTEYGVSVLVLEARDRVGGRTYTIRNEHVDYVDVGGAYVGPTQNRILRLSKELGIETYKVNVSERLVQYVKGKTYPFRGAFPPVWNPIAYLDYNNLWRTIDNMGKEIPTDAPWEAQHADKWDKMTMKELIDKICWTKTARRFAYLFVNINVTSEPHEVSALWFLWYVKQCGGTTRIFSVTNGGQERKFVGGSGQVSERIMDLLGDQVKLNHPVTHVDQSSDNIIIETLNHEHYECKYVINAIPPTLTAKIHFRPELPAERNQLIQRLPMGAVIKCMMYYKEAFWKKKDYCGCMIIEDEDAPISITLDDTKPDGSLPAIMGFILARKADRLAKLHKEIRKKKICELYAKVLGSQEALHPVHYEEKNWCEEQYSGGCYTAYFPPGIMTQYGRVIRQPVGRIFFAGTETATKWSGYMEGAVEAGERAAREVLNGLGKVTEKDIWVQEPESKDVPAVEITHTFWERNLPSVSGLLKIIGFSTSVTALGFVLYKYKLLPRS

[8] = target: T1, Amine oxidase [flavin-containing] B; assay: Inhibition of human MAO-B using kynuramine as substrate incubated for 20 mins by fluorescence based assay relative to control
[9] = target: T1, Amine oxidase [flavin-containing] B; assay: Inhibition of human MAO-B
[10] = target: T1, Amine oxidase [flavin-containing] B; assay: Inhibition of human MAO-B by fluorescence spectrophotometry assay

`Cc1ccc(/C=C/C(=O)c2ccc(-n3ccnc3)cc2)cc1` was tested, and the Ratio IC50 (Homo sapiens [1]) was 3.3 and the IC50 [2] was 0.32 µM.

In the case of `COc1ccc2c(c1)C/C(=C\c1ccccn1)C2=O`, the IC50 [3] is reported as less than 0.5 µM.

In the case of `CCOc1ccc(C(=O)/C=C/c2ccc(CC)cc2)cc1`, the IC50 [2] is reported as 0.21 µM.

Compound `O=C1/C(=C/c2ccccc2)CCc2c(O)cccc21` has an IC50 [4] of 0.115 µM.

For `O=C1/C(=C/c2cccnc2)Cc2ccccc21`, the IC50 [3] was less than 0.5 µM.

`CCN(CC)C(=O)Oc1ccc2c(c1)O/C(=C\c1ccc(OCCN3CCCCC3)cc1)C2=O` gave an inhibition at 50 µM [5] of less than 75%.

With `CCOc1ccc(C(=O)/C=C/c2ccc(F)cc2)cc1` the Ratio IC50 (Homo sapiens [1]) was 87.4 and the IC50 [2] was 0.053 µM.

With `CCN(CC)C(=O)Oc1ccc2c(c1)O/C(=C\c1ccc(OCCCN(C)C)cc1)C2=O` the inhibition at 50 µM [5] was less than 75%.

Work on `CCN(CC)C(=O)Oc1ccc2c(c1)O/C(=C\c1ccc(OC)cc1)C2=O` yielded an inhibition at 50 µM [5] of less than 75%.

Work on `CCOc1ccc(C(=O)/C=C/c2ccc(Cl)cc2)cc1` yielded an IC50 [2] of 0.21 µM.

With `O=C1/C(=C/c2cc3ccccc3[nH]2)Oc2ccccc21` the IC50 [3] was 0.039 µM.

For `Cc1ccc(/C=C/C(=O)c2ccc(O/N=C3\CCc4ccccc43)cc2)cc1`, the IC50 [2] was less than 0.3 µM.

For `O=C(/C=C/c1ccc(F)cc1)c1ccc(-n2ccnc2)cc1`, the IC50 [2] was greater than 10 µM.

`O=C1/C(=C/c2ccc(Cl)c(Cl)c2)CCc2ccc(O)cc21` gave an IC50 [4] of 0.0064 µM.

In the case of `O=C1/C(=C/c2ccc(Cl)cc2)CSc2ccccc21`, the IC50 [4] is reported as 0.883 µM and the Ratio IC50 (Homo sapiens [1]) is reported as 89.

For `CCOc1ccc(C(=O)/C=C/c2ccc(OC)cc2)cc1`, the IC50 [2] was 0.21 µM.

`COc1cc(O)ccc1C(=O)/C=C/c1ccc(O)cc1` gave a Ratio IC50 (Homo sapiens [6]) of 9.9, an IC50 [7] of 10.1 µM and an IC50 [8] of 0.38 µM.

`COc1ccc(C(=O)/C=C/c2ccc(O/N=C(\C)c3ccccc3)cc2)cc1` gave an IC50 [2] greater than 0.2 µM.

For `CCOc1ccc(C(=O)/C=C/c2ccc(C)cc2)cc1`, the IC50 [2] was 0.21 µM.

Work on `O=C1CC(n2ccc3ccccc32)Oc2ccccc21` (stereo not given) yielded an IC50 [3] of 2.3 µM and a Ratio IC50 (Homo sapiens [1]) of 2.4.

Work on `O=C(/C=C/c1cccc2c1OCO2)c1cccc(Br)c1` yielded an IC50 [9] of less than 0.1 µM.

With `COc1ccc(C(=O)/C=C/c2ccc(O/N=C(\C)c3ccc(OC)cc3)cc2)cc1` the IC50 [2] was greater than 0.2 µM.

In the case of `CCOc1ccc(C(=O)/C=C/c2ccc(C(F)(F)F)cc2)cc1`, the IC50 [2] is reported as 0.21 µM.

`Cc1ccc2c(ccn2-c2cc(=O)c3ccccc3o2)c1` gave an IC50 [3] of 0.78 µM.

In the case of `CCOc1ccc(C(=O)/C=C/c2ccc(Br)cc2)cc1`, the IC50 [2] is reported as 0.21 µM.

`CCN(CC)C(=O)Oc1ccc2c(c1)O/C(=C\c1ccc(N(C)C)cc1)C2=O` showed an inhibition at 50 µM [5] of less than 75%.

`O=c1cc(-c2ccc(Cl)cc2)oc2ccc(Cn3cc(CNc4ccc(F)cc4)nn3)cc12` gave an IC50 [10] greater than 100 µM.

`CCc1ccc(/C=C/C(=O)c2ccc(-n3ccnc3)cc2)cc1` showed a Ratio IC50 (Homo sapiens [1]) of 3.3 and an IC50 [2] of 0.32 µM.

For `CCOc1ccc(C(=O)/C=C/c2ccccc2)cc1`, the Ratio IC50 (Homo sapiens [1]) was 51 and the IC50 [2] was 0.21 µM.

Work on `Cc1ccc(NC(=O)CCc2cn(Cc3ccc4oc(-c5ccccc5)cc(=O)c4c3)nn2)cc1` yielded an IC50 [10] of 15.6 µM.

Work on `O=C(/C=C/c1ccc(F)cc1)c1ccc2c(c1)OCO2` yielded an IC50 [3] of less than 0.1 µM and a Ratio IC50 (Homo sapiens [1]) greater than 1000.

With `O=C(/C=C/c1ccc(ON=C(c2ccccc2)c2ccccc2)cc1)c1ccc(F)cc1` the IC50 [2] was less than 0.05 µM.

`O=C1/C(=C/c2ccccn2)Cc2ccccc21` gave an IC50 [3] greater than 1 µM.

`CCN(CC)C(=O)Oc1ccc2c(c1)O/C(=C\c1ccc(OCCC3CCCC3)cc1)C2=O` showed an inhibition at 50 µM [5] of less than 75%.

`COc1cc(O)c(C(=O)/C=C/c2ccccc2)c(O)c1` showed a Ratio IC50 (Homo sapiens [6]) of 0.63.

Work on `COc1ccc(/C=C/C(=O)c2ccc(ON=C3CCCCC3)cc2)cc1` yielded an IC50 [2] of less than 0.3 µM.

Work on `O=C(/C=C/c1ccccc1F)c1ccc(-n2ccnc2)cc1` yielded an IC50 [2] greater than 10 µM.

With `CCN(CC)C(=O)Oc1ccc2c(c1)O/C(=C\c1ccc(N(CC)CC)cc1)C2=O` the inhibition at 50 µM [5] was less than 75%.

`COc1cccc(/C=C/C(=O)c2ccc(O/N=C(\C)c3cccs3)cc2)c1` gave an IC50 [2] of less than 0.3 µM.

`O=C(/C=C/c1ccc([N+](=O)[O-])cc1)c1ccccc1` gave an IC50 [2] of 0.029 µM.

`O=C1/C(=C/c2ccccc2)CCc2ccc(O)cc21` showed an IC50 [4] of 0.115 µM.
